Data reported in US6352976B1, “Selective inhibitors of MMP-12” (Aventis Pharmaceuticals Inc., priority 1998, dated 2002).
pKi: −log10 of the molar value. Structures can show the parent of a compound that is named as a salt.

Key:
MMP-2 = target: T1, MMP-2 (Homo sapiens, UniProt P08253); experiment: Determination of inhibition constant (Ki) for MMP-2, fluorogenic substrate; type: biochemical; conditions: pH 7.6
T1 construct: made in house; host or cells: Pichia pastoris (strains KM71 / SMD1168, clone 24S; vector pHIL-D2)
T1 sequence (P08253 110-660): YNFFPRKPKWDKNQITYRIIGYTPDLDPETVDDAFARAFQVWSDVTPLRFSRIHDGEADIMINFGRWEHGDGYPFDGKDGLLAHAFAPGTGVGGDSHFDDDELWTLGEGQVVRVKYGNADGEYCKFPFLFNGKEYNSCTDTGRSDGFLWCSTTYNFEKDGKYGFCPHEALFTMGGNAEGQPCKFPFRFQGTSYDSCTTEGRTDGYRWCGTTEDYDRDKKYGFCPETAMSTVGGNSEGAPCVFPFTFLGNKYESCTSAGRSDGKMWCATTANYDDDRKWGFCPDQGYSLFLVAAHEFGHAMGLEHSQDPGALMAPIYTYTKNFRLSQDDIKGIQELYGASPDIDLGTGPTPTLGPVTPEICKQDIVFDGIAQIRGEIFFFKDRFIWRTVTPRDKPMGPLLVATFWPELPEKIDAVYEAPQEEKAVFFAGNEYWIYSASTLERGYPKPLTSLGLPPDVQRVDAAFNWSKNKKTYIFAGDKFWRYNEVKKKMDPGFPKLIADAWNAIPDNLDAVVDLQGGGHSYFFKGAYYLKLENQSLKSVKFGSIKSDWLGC
From the text: Recombinant MMP-2 was purified from the fermentation broth of yeast Pichia pastoris that carries the integrated MMP-2 gene into its chromosome. In brief, the full-length cDNA for MMP-2 was obtained by reverse transcription of RNA from human melanoma A375M cell line by the reverse transcriptase polymerase chain reaction (RT-PCR) using sequence specific oligonucleotides. The nucleotide sequence was confirmed by Taq cycle sequencing. The cDNA was ligated into the Pichia pastoris expression vector pHIL-D2 in such a way that the expression of pro-MMP-2 is under the control of the methanol inducible alcohol oxidase promoter. The expression construct was digested with either SalI or NsiI and used to transform the Pichia pastoris strains KM71 and SMD1168. A large-scale culture of a selected clone designated 24S was performed in a high cell density fermentor and the recombinant MMP-2 was purified from the culture supernatant by gelatin-sepharose 4B (Pharmacia). The enzyme is sufficiently pure at this stage for routine measurement of inhibition. If desired, however, the enzyme may be further purified by AcA 44 gel filtration (Spectra).
The active MMP-2 was obtained by activation of proMMP-2 at 37° C. for 1 h with 4-aminophenylmercuric acetate which was then removed by a Sephadex G-50 spin column. The enzyme is assayed using a fluorogenic substrate, Mca-Pro-Leu-Gly-Leu-Dpa-Ala-Arg-NH2, at 37° C. in 2.0 mL of assay buffer containing 50 mM Tris, pH 7.6, 0.2 M sodium chloride, 50 mM calcium chloride, 0.02% Brij-35, and 50 μM β-mercaptoethanol. The increase in fluorescence is monitored (λex 328 nm, λem 393 nm). Substrate and inhibitor stock solutions are made in DMF. The enzyme is added at the last to start the reaction. For routine measurement of a Ki value for a reversible, competitive inhibitor, the initial rates in the presence of at least four inhibitor concentrations (two inhibitor concentrations above Ki and two below Ki) are measured using [S]=1 μM (<<Km) and [MMP-2]=0.4 nM. Under these conditions, the measured Ki, app is close to true Ki.

MMP-3 (Stromelysin-1) = target: T2, MMP-3 (Stromelysin-1) (Homo sapiens, UniProt P08254); experiment: Determination of inhibition constant (Ki) for MMP-3, fluorogenic substrate; type: biochemical; conditions: pH 7.6
T2 construct: The active MMP-3 was obtained by treatment of proMMP-3 with trypsin; endogenous in cells; host or cells: human rheumatoid synovial fibroblasts stimulated with macrophage-conditioned medium; secreted proenzyme purified from culture medium
T2 sequence (P08254 100-477): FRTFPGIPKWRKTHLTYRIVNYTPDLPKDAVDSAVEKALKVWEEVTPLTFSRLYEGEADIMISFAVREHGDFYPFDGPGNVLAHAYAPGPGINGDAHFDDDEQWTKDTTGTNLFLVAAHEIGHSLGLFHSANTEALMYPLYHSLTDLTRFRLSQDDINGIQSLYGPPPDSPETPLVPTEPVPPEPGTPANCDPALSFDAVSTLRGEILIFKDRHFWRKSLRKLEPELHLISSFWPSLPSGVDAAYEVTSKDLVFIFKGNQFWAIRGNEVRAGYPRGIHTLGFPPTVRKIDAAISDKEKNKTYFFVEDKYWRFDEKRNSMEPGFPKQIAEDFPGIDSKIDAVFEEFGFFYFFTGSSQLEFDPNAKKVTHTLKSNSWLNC
Description: ProMMP-3 (EC3.4.24.17; Stromelysin-1) was purified from culture medium of human rheumatoid synovial fibroblasts stimulated with macrophage-conditioned medium according to Okada, Y. et al., J. Biol. Chem. 261, 14245-14255 (1986). The active MMP-3 was obtained by treatment of proMMP-3 with trypsin (5 μg/mL) at 37° C. for 30 minutes, followed by addition of soybean trypsin inhibitor (50 μg/mL). Aliquots of the activated MMP-3 were stored at −20° C.
The activated MMP-3 is assayed using a fluorogenic substrate, Mca-Pro-Leu-Gly-Leu-Dpa-Ala-Arg-NH2, Knight, C. G. et al., FEBS Lett. 296, 263-266 (1992), at 37° C. in an assay buffer containing 50 mM Tris, pH 7.6, 0.2 M sodium chloride, 50 mM calcium chloride, and 0.02% Brij-35. The increase in fluorescence due to cleavage of Gly-Leu peptide bond by MMP-3 was monitored with Perkin-Elmer LS50B Fluorimeter (λex 328 nm, λem 393 nm, excitation slit 2.5, emission slit 10). Substrate and inhibitor stock solutions were made in DMF and 0.1% HCl-DMF, respectively. For determination of Ki values for MMP-3 inhibitors, a series of intermediate inhibitor solutions were prepared in 0.1% HCl-DMF and 1 or 2 μL of the diluted inhibitor solution was mixed with 1 μL of 2 mM substrate solution in DMF in a quartz cuvette containing 2 mL of assay buffer. The enzyme (10 μL of 0.2 μM MMP-3 dilution in assay buffer) was added at the last to start the reaction. For routine measurement of a Ki value for a reversible, competitive inhibitor, the initial rates in the presence of at least four inhibitor concentrations (two concentrations above Ki and two concentrations below Ki) were measured using [S]=1 μM (<<Km) and [MMP-3]=1 nM. Under these conditions, the measured Ki, app is close to true Ki.
The Ki for a competitive inhibitor is calculated using: v0/vi=(1+[I]/Ki, app) and Ki=Ki, app/(1+[S]/Km), where v0 is the initial rate in the absence of inhibitor, vi is the initial rate in the presence of inhibitor at the concentration of [I], [S] is the substrate concentration, and Km is the Michaelis constant. If slow binding is observed (i.e. if the approach to the binding equilibrium is slow), the final steady-state rate rather than the initial rate is taken as vi.

[1] = Table 1, Mca-Pro-Leu-Gly-Leu-Dpa-Ala-Arg-NH2, 37° C.

Row | Structure (SMILES) | pKi (MMP-2; [1]) | pKi (MMP-3 (Stromelysin-1); [1]) | pKi (MMP-2; Table 2 (comparative), method of Example B, 37° C.) | pKi (MMP-3 (Stromelysin-1); Table 2 (comparative), method of Example C, 37° C.)
1 | CC(C)C[C@H](NC(=O)[C@@H](S)C(C)C)C(=O)N[C@@H](Cc1ccccc1)C(=O)O [Example 3, (S)-2-Mercapto-3-methylbutyroyl-(L)-leucyl-(L)-phenylalanine] | 6.11 | 5.85 |  | 
2 | CSCC[C@H](NC(=O)[C@@H](S)C(C)C)C(=O)N[C@@H](Cc1ccccc1)C(=O)O [Example 4, (S)-2-Mercapto-3-methylbutyroyl-(L)-methionyl-(L)-phenylalanine] | 6.10 | 6.35 |  | 
3 | CC(C)[C@H](S)C(=O)N[C@@H](CCCCN)C(=O)N[C@@H](Cc1ccccc1)C(=O)O [Example 5, (S)-2-Mercapto-3-methylbutyroyl-(L)-lysyl-(L)-phenylalanine trifluoroacetic acid salt] | 5.76 | 5.81 |  | 
4 | CNC(=O)[C@H](Cc1ccccc1)NC(=O)[C@H](CCc1ccccc1)NC(=O)C(S)C(C)C (stereo partly drawn) [Example 7, (S)-2-Mercapto-3-methylbutyroyl-(L)-homo-phenylalanyl-(L)-phenylalanine N-methyl amide, reference compound] |  |  | 8.48 | 8.00
